This note sets out measurements from patent publication US5364944A, “Substituted benzoylbenzene-, biphenyl- and 2-oxazole- alkanoic acid compounds” (American Home Products Corporation, priority 1993, dated 1994).

Test [1] relates to 5-lipoxygenase in human whole blood. As to the kind of experiment: Inhibition of 5-lipoxygenase in human whole blood (LTB4). Format: cell-based. On the procedure: The assay of this Example measures the ability of the compounds tested to inhibit 5-lipoxygenase in human whole blood.
(§1) This assay is carried out as follows:
Blood is obtained in 50-100 ml quantities from male donors. White blood cell counts and differentials are made. Two ml of blood are placed in a 15 ml polypropylene test tube. Compounds are solubilized in dimethylsulfoxide and diluted 1:10 in 10% bovine serum albumin in phosphate buffered saline, pH 7.4 resulting in a final dimethylsulfoxide concentration of 0.1% in the blood. Then, compounds are added to the blood in a shaking water bath at 37° C. for 10 minutes prior to the addition of 30 μM calcium ionophore (A23187; Sigma). After ionophore administration, whole blood samples are mixed and incubated for 20 minutes at […] in a shaking water bath. Incubation is terminated by placing samples in an ice bath and immediately adding ethylene glycol-bis-(β-aminoethyl ether)-N,N,N',N'-tetraacetic acid (10 mM). Samples are mixed and centrifuged at 1200×g for 15 minutes at 4° C. Preparation of samples for evaluation by RIA or ELISA is carried out by the following protocol. Plasma is removed from sample tubes, placed in 15 ml polypropylene test tubes containing 8 ml methanol, and then vortexed to precipitate protein. Samples are stored at -70° C. overnight. The next day, samples are centrifuged at 200×g for 15 minutes at 4° C. to pellet the precipitate. Samples are dried in a Savant speed vac concentrator, reconstituted to original volume with ice cold RIA or ELISA buffer, and stored at -70° C. until assayed. The assay for eicosanoids (LTB4, TxB2, and PGE2) is performed as described by the manufacturer of the [^3 H]-RIA kit or ELISA kit (LTB4 -Amersham, TxB2 and PGE2 - Caymen Chemical).
The total eicosanoid level in 2 ml of blood is calculated and reported as ng/10^6 neutrophils. […] Drug effects are expressed as percent change from control values.
Compounds tested in vitro are solubilized in dimethylsulfoxide and diluted 1:10 in 10% bovine serum albumin in phosphate buffer saline resulting in a final dimethylsulfoxide concentration of 0.1% in the blood.

The target of test [2] is T1, LTD4-induced contractions of isolated guinea pig trachea (Cavia porcellus, UniProt Q2NNR5).
T1 construct: isolated guinea pig trachea; from tissue; host or cells: tracheal rings of male Hartley guinea pigs
T1 sequence (Q2NNR5 1-340): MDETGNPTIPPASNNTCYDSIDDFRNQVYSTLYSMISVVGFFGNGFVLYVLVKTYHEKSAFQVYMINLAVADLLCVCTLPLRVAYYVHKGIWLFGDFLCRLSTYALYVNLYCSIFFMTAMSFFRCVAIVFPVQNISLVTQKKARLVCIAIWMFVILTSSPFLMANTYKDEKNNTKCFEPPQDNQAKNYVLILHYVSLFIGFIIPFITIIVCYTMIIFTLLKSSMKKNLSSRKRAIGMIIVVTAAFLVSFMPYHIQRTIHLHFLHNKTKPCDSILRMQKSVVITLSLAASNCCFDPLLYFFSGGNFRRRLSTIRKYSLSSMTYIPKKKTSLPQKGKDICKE
As to the kind of experiment: In vitro isolated guinea pig trachea assay, LTD4 antagonist activity. The arrangement: species or system guinea pig (male Hartley). On the procedure:
The LTD4 antagonist activity of the compounds of the invention is assessed in the in vitro isolated guinea pig trachea assay. This assay is carried out as follows: Male Hartley guinea pigs (350-400 g) are euthanized by a blow to the head, the neck is opened and the trachea removed. The trachea is maintained in aerated physiological salt solution, cleared of connective tissue and fat and cut into rings approximately 2 mm in width (usually containing two cartilaginous segments per ring). Two pieces of silk suture are then passed through the lumen of the tracheal ting and are tied around the cartilage, one on each side of the trachealis muscle. The tracheal ring is suspended between a glass hook and a force displacement transducer in a 10 ml organ bath for measurement of isometric tension. […] The tracheal rings are maintained at 2 g resting tension and equilibrated for 45 minutes (with frequent washing and readjustment of resting tension). The tracheal […] contracted by the addition of carbachol (3×10^-6 M), to determine tissue responsiveness and establish a reference contraction. On attainment of a stable level of contraction (approximately 30 minutes), the tissues are washed several times until baseline tension has been restored and the re-equilibrated for 30 minutes. The tissues are then incubated for 45 minutes with a test antiagonist (either 1×10^-6 M or 1×10^-5 M) or 10 μl of an appropriate solvent control (control, nontreated). One tissue in each group serves as the control. Twenty minutes prior to the construction of the LTD4 cumulative concentration-response curve, L-[…]×10^-2 M final bath concentration) is added to inhibit bioconversion of LTD4 to LTE4. Only one LTD4 concentration-response curve is constructed in each tissue. All responses to LTD4 in an individual tissue are measured as a percentage of the reference contraction of that tissue to carbachol. LTD4 antagonist activity is determined by comparison of the concentration response curves of LTD4 in the presence and absence of antagonist. Assessment of the relative rightward shift of the antagonist treated curve relative to the solvent (control) treated tissue is calculated as a concentration ratio (Eq. A) and used in subsequent calculations to derive an antagonist pKB value (Eqs. B and C). […] If a compound is found to be active and/or depress the maximal response to LTD4, then a range of concentrations of the test compound should be used generating multiple concentration ratios which would then be used to perform a Schild analysis, and determination of a pA2 value where appropriate.

The subject of the next test is LTB4. As to the kind of experiment: Reverse passive Arthus pleurisy assay, inflammatory mediator release: LTB4. Format: in vivo, rat (male Lewis). On the procedure:
The compounds of the invention are further tested in the reverse passive Arthus pleurisy assay to evaluate their effectiveness in inflammatory mediator release and/or the fluid and cellular phases of an inflammatory response.
as §1
A reverse passive Arthus reaction is induced in the pleural cavity of male Lewis rats (150-200 g; fasted overnight prior to use) by the intravenous administration of bovine serum albumin (BSA; 4 mg/0.2 ml) followed 30 minutes later by the injection of rabbit anti-BSA (1 mg/0.2 ml; lyophilized IgG fraction; Organon Teknika, West Chester, Pa.) into the right pleural space under halothane anesthesia. […] Animals are sacrificed at either the time of peak eicosanoid production (i.e. 5 minutes after anti-BSA for immunoreactive TxB2 10 minutes for immunoreactive LTB4, 20 minutes for immunoreactive LTC4) or at the time of peak neutrophil infiltration (4 hours after anti-BSA) by CO2 inhalation. The pleural cavity is then exposed, the fluid exudate removed by gentle vacuum aspiration and the volume of exudate is recorded. For the determination of cellular infiltration, the pleural cavity is rinsed with 3 ml of 0.1% EDTA in sterile saline, and the recovered wash is pooled with the exudate. Cell number is determined on a model ZBI Coulter counter. For determination of eicosanoid production, undiluted pleural exudate is microfuged and the supernatant is extracted with ethanol (8-10 times volume). Extracts are either stored at -20° C., or are evaporated to dryness under a stream of N2 and reconstituted in radioimmunoassay (RIA) buffer.
Eicosanoids are quantitated by RIA according to the procedure specified by the RIA kit manufacturer (Advanced Magnetics, Cambridge, Mass.). Briefly, 100 μl of ^3 H-labeled eicosanoid and 100 μl of specific antibody are sequentially added to 100 μl of extracted pleural exudate in BGG -phosphate buffer which contains 0.01 M phosphate, 0.1% bovine gamma globulin and 0.1% sodium azide at pH 7.0. Antibody-bound eicosanoid is separated from unbound eicosanoid by the addition of 750 μl of dextran (0.4%)-coated charcoal (0.4% Norit A) containing 0.1% sodium azide. The mixture is centrifuged at 2000 RPM at 5° C. for 15 minutes to pellet the charcoal and adsorbed unbound eicosanoid. Antibody-bound labeled eicosanoid is quantitated by counting in a liquid scintillation counter, and is correlated to concentration by a standard curve.
Inflammatory cells are expressed as 10^6 cells/ml, pleural exudate is expressed as ml of fluid, and the amount of eicosanoids in the pleural cavity is expressed as ng/ml of exudate. Mean ±S.E.M. is determined for each group. Percent inhibition (% I) of cell number, exudate volume and eicosanoid production is calculated for vehicle-treated control groups, and the responses in drug-treated rats are then expressed as the mean % I of the control. […] Exp. Ther., 96, 99-113 (1949).

Setting [3] is: reference leukotriene antagonists.

Counter-ions that a name gives are not always drawn. Where only a bound is given, the exact number is not on record here.

Regarding `CN(O)C(=O)Cc1ccc(-c2ccc(OCc3ccc4ccccc4n3)cc2)c(F)c1` [Example 8, N-Hydroxy-N-methyl-2-fluoro-4'-(2-quinolinylmethoxy)-[1,1'-biphenyl]-4-acetamide], the IC50 (usually the midpoint of a concentration-inhibition curve) in test [1] is 530 nM. Besides, the “% Inhibition of LTB4” value in test [1] (at 25 μM) was determined as 94%.
`CN(O)C(=O)C(Cc1csc(-c2ccccc2)n1)c1ccc(-c2ccc(OCc3csc(-c4ccccc4)n3)cc2)cc1` (stereo not drawn) [Example 25]: the Kb (as a rule, the affinity of an antagonist, worked out from how it opposes an agonist) in test [2] (1 × 10^-5 M) is more than 7940 nM.
For `CC(c1ccc(-c2ccc(OCc3nc4ccccc4o3)cc2)cc1)N(O)C(N)=O` (stereo not drawn) [Example 35], the Kb in test [2] (1 × 10^-5 M) was more than 5010 nM. Further, the “% Inhibition of LTB4” value in test [1] (at 10 μM) was found to be 51%.
On to `CC(c1ccc(-c2ccc(OCc3csc(-c4ccccc4)n3)cc2)cc1)N(O)C(N)=O` (stereo not drawn) [Example 38, 1-{1-[4'-(2-Phenylthiazol-4-ylmethoxy)-biphenyl4-yl]-ethyl}-1-hydroxy-urea], for which the “% Inhibition of LTB4” value in test [1] (at 10 μM) is on record as 46%.
As for `O=C(O)CCc1nc(-c2ccc(OCc3ccc4ccccc4n3)cc2)c(-c2ccccc2)o1` [Example 10], the “% Inhibition of LTB4 Synthesis” value in the test with LTB4 (25 mg/kg p.o., 3 hours before challenge) amounted to 65%.
`O=C(O)CCc1nc(-c2ccc(OCc3ccc4ccccc4n3)cc2)c(-c2ccccc2)o1` [Example 5, 5-Phenyl-4-[4-(2-Quinolinylmethoxy)phenyl]-2-oxazole propanoic acid]: the Kb in test [2] (1 × 10^-5 M) was 316 nM. Further, in test [1] (at 25 μM), the “% Inhibition of LTB4” value is 11%.
Consider `CC(C(=O)O)c1cccc(C(=O)c2ccccc2)c1` (stereo not drawn) [ketoprofen, reference compound], for which the “% Inh LTB4” value in the test on LTB4 (10 mg/kg p.o., standard drugs) was found to be 35%.
As to `CC(c1ccc(-c2ccc(OCc3nc4ccccc4s3)cc2)c(F)c1)N(O)C(N)=O` (stereo not drawn) [Example 40, 1-{1-[4'-(Benzothiazol-2-ylmethoxy)-2-fluoro(1,1'-biphenyl)-4-yl]ethyl}-1-hydroxy-urea], in test [1] (at 10 μM), the “% Inhibition of LTB4” value stood at 47%.
As to `CC(=O)N(O)C(C)c1ccc(-c2ccc(OCc3nc4ccccc4s3)cc2)cc1` (stereo not drawn) [Example 34, N-{1-[4'-(Benzothiazol-2-ylmethoxy)-biphenyl4-yl]-ethyl}-N-hydroxy-acetamide], the Kb in test [2] (1 × 10^-5 M) is more than 10000 nM. Further, the “% Inhibition of LTB4” value in test [1] (at 10 μM) was found to be 36%.
As for `CN(O)C(=O)Cc1ccc(-c2ccc(OCc3csc(-c4ccccc4)n3)cc2)cc1` [Example 19, N-Hydroxy-N-methyl-4'-[(2-phenylthiazol-4-yl)methoxy][1,1'-biphenyl]-4-acetamide, sodium salt, sesquihydrate], the “% Inhibition of LTB4” value in test [1] (at 25 μM, sodium salt, sesquihydrate) was 83%.
For `CC(=O)N(O)C(C)c1ccc(-c2ccc(OCc3csc(-c4ccccc4)n3)cc2)cc1` (stereo not drawn) [Example 39, N-{1-[4'-(2-Phenylthiazol-4-ylmethoxy)-biphenyl-4-yl]-ethyl}-N-hydroxy-acetamide], the “% Inhibition of LTB4” value in test [1] (at 10 μM) is reported as 43%.
In test [1], `CN(O)C(=O)Cc1ccc(-c2ccc(OCc3csc(-c4ccccc4)n3)cc2)c(F)c1` [Example 27] had an IC50 of 1300 nM. Also, in test [1] (at 25 μM), the “% Inhibition of LTB4” value is 69%.
In test [2] (1 × 10^-5 M), `CN(O)C(=O)Cc1ccc(-c2ccc(OCc3nc4ccccc4n3C)cc2)c(F)c1` [Example 29, 2-[2-Fluoro-4'-(1-methyl-1H-benzimidazol-2-ylmethoxy)biphenyl-4-yl]-N-hydroxy-N-methyl-4-acetamide] had a Kb of 631 nM. In addition, the IC50 in test [1] was determined as 700 nM. In addition, the “% Inhibition of LTB4” value in test [1] (at 10 μM) is 74%.
Regarding `O=S(=O)(Nc1cccc(OCc2ccc3ccccc3n2)c1)C(F)(F)F` [Wy-48,252, reference compound], the Kb in test [2] (setting [3]) is 126 nM.
Regarding `O=C(Cc1ccc(-c2ccc(OCc3nc4ccccc4s3)cc2)cc1)NO` [Example 14, N-Hydroxy-4'-(2-benzothiazolylmethoxy)[1,1'-biphenyl]-4-acetamide], the Kb in test [2] (1 × 10^-5 M) is more than 7940 nM. In addition, the “% Inhibition of LTB4” value in test [1] (at 25 μM) is recorded as 5%.
Turning to `CN(O)C(=O)Cc1ccc(-c2ccc(OCc3ccccn3)cc2)c(F)c1` [Example 28, 2-Fluoro-N-hyroxy-N-methyl-4'-(2-pyridinylmethoxy)[1,1'-biphenyl]-4-acetamide], in test [2] (1 × 10^-5 M), the Kb was more than 3980 nM. Inhibition in test [1] was half-maximal at 2300 nM (IC50). Also, in test [1] (at 10 μM), the “% Inhibition of LTB4” value came to 66%.
In the case of `CCCc1c(OCCCCc2nnn[nH]2)ccc(C(C)=O)c1O` [Ly-171,883, reference compound], the Kb in test [2] (setting [3]) was 36.3 nM.
Take `CC(=O)N(O)C(C)c1ccc(-c2ccc(OCc3nc4ccccc4o3)cc2)cc1` (stereo not drawn) [Example 36, N-{1-[4'-(Benzoxazol-2-ylmethoxy)-biphenyl-4-yl]ethyl}-N-hydroxy-acetamide]: in test [1] (at 10 μM), the “% Inhibition of LTB4” value stood at 77%.
In test [2] (1 × 10^-5 M), `CC(=O)N(O)C(C)c1ccc(-c2ccc(OCc3nc4ccccc4n3C)cc2)cc1` (stereo not drawn) [Example 37] had a Kb of more than 3160 nM. For the same compound, in test [1] (at 10 μM), the “% Inhibition of LTB4” value turned out to be 61%.
